The values that follow come from PMC11279465, “Dual Inhibitors of P-gp and Carbonic Anhydrase XII (hCA XII) against Tumor Multidrug Resistance with Piperazine Scaffold” (Molecules, 2024).

Assay [1] relates to K562/DOX cells. Nature of the assay: Intrinsic cytotoxicity (MTT). Conditions: compound alone at 3 µM, 72 h. The format is cell-based, human. The method, then: Compounds were first studied at 1 and 3 µM concentrations to evaluate their intrinsic cytotoxicity in both the parental K562 and the resistant K562/DOX cell lines, using the MTT assay. All compounds had no intrinsic cytotoxicity in the parental line.
The intrinsic toxicity of the studied compounds was determined by an MTT assay. K562 and K562/DOX were exposed for 72 h with compounds at 1 and 3 µM concentrations while HT29, A549, HT29/DOX and A549/DOX cells were incubated for 48 h with compounds used at different concentrations (from 10 nM to 50 µM). The percentage of growth compared to the untreated control was transformed into histograms with the GraphPad Prism 5 program.

In assay [2] the test system is K562/DOX cells. Nature of the assay: Doxorubicin cytotoxicity enhancement assay (MTT). The assay is classed as cell-based, human. Conditions: 72 h. The protocol:
K562 is a highly undifferentiated erythroleukemia cell line. The doxorubicin-resistant K562/DOX cells overexpress almost exclusively the transporter membrane protein P-gp.
K562/DOX cells were incubated for 72 h with different concentrations of doxorubicin in combination with 1 or 3 µM of all compounds. […] HT29, A549, HT29/DOX and A549/DOX cells were incubated for 48 h with 5 µM doxorubicin, alone or in combination with 1 or 3 µM of selected compounds. Cell viability of the cell lines was measured by the MTT assay, using a Synergy HT microplate spectrofluorometer (Bio-Tek Instruments, Winooski, VT, USA). The absorbance of untreated cells was considered 100%; results were expressed as a percentage of viable treated cells versus the control untreated cells.

The target of assay [3] is T1, hCA I (Homo sapiens, UniProt P00915).
T1 construct: made in house
Nature of the assay: CA inhibition, stopped-flow CO2 hydrase assay. The format is biochemical. The conditions noted are these: stopped-flow technique; incubation time 6 h; mean of 3 assays. The protocol: (§1) Four hCA isoforms were used in this assay: the cytosolic hCA I and II and the tumor-associated transmembrane hCA IX and XII isoforms. Acetazolamide (AAZ) was used as a standard inhibitor.
(§2) An SX.18MV-R Applied Photophysics (Oxford, UK) stopped-flow instrument has been used to assay the catalytic/inhibition of various CA isozymes. […] Saturated CO2 solutions in water at 25 °C were used as substrate. Stock solutions of inhibitors were prepared at a concentration of 10 μM (in DMSO-water 1:1, v/v) and dilutions up to 0.01 nM were carried out with the assay buffer mentioned above. […] Inhibitor and enzyme solutions were preincubated together for 6 h at room temperature prior to assay in order to allow for the formation of the E-I complex. […] The inhibition constants were obtained by non-linear least-squares methods using the Cheng–Prusoff equation, as reported earlier, and represent the mean from at least three different determinations.

Assay [4] has as its target T2, hCA XII (Homo sapiens, UniProt O43570).
T2 construct: made in house
Nature of the assay: CA inhibition, stopped-flow CO2 hydrase assay. The format is biochemical. The conditions noted are these: stopped-flow technique; incubation time 6 h; mean of 3 assays. The protocol:
as §1, §2

Assay [5] deals with T3, hCA II (Homo sapiens, UniProt P00918).
T3 construct: made in house
Nature of the assay: CA inhibition, stopped-flow CO2 hydrase assay. The assay is classed as biochemical. Conditions: stopped-flow technique; incubation time 6 h; mean of 3 assays. The protocol:
as §1, §2

Assay [6] deals with T4, hCA IX (Homo sapiens, UniProt Q16790).
T4 construct: made in house
Nature of the assay: CA inhibition, stopped-flow CO2 hydrase assay. The assay is classed as biochemical. The conditions noted are these: stopped-flow technique; incubation time 6 h; mean of 3 assays. The method, then:
as §1, §2

Assay [7] relates to HT29/DOX cells. Nature of the assay: Intrinsic cytotoxicity (MTT). The conditions noted are these: compound alone at 1 µM; HT29/DOX; 48 h. The format is cell-based, human. The protocol:
(§3) All compounds were preliminarily studied to evaluate their intrinsic cytotoxicity at different concentrations (from 10 nM to 50 µM) in the parental HT29 and A549 and the resistant HT29/DOX and A549/DOX cells using the MTT assay.
(§4) The intrinsic toxicity of the studied compounds was determined by an MTT assay. K562 and K562/DOX were exposed for 72 h with compounds at 1 and 3 µM concentrations while HT29, A549, HT29/DOX and A549/DOX cells were incubated for 48 h with compounds used at different concentrations (from 10 nM to 50 µM). The percentage of growth compared to the untreated control was transformed into histograms with the GraphPad Prism 5 program. […]

Assay [8] deals with A549/DOX cells. Nature of the assay: Intrinsic cytotoxicity (MTT). The format is cell-based, human. The conditions noted are these: compound alone at 1 µM; A549/DOX; 48 h. The method, then: as §3, §4
For assay [9], the system named is HT29/DOX cells. Nature of the assay: Intracellular doxorubicin accumulation. The format is cell-based, human. The conditions noted are these: compound at 3 µM + doxorubicin 5 µM, 24 h, vs doxorubicin alone. The protocol:
(§5) Furthermore, we evaluated the intracellular accumulation of 5 µM doxorubicin in HT29/DOX and A549/DOX cells alone and in the presence of derivatives 1, 2, 4–6, 14, 19 and 33, studied at 1 and 3 µM. This test allowed us to investigate if the reduced viability measured in the co-administration assay was due to different retention of the anticancer drug within the cells. In the parental HT29 and A549 cell lines, we measured a greater amount of intracellular doxorubicin compared to their resistant counterparts, which was not enhanced by our selected compounds (Supplementary Materials, Figure S7). However, in HT29/DOX and A549/DOX cells, derivatives 1, 2, 4–6, 14, 19 and 33 were able to increase the intracellular retention of the anticancer drug, in a dose-dependent way. […]
(§6) Intracellular doxorubicin was measured in 10,000 cells seeded into 96-well plates and incubated for 24 h with 5 µM doxorubicin with or without 1 µM and 3 µM of each compound. The intracellular drug content was measured fluorimetrically as detailed previously using a Synergy HTX 96-well plate reader. The results were expressed as nmol doxorubicin/mg cell proteins based on the titration curve previously prepared.

In assay [10] the test system is A549/DOX cells. Nature of the assay: Intracellular doxorubicin accumulation. The assay is classed as cell-based, human. Conditions: compound at 3 µM + doxorubicin 5 µM, 24 h, vs doxorubicin alone. The method, then: as §5, §6
Assay [11] deals with P-gp (Homo sapiens, UniProt P08183). Nature of the assay: Calcein-AM transport inhibition in MDCK-MDR1 cells. The assay is classed as cell-based. The arrangement: expressed in transfected cells; host or cells: MDCK (Madin-Darby Canine Kidney). The conditions noted are these: mean ± SEM. The source says:
The MDR interaction potency of these compounds was studied by detecting the inhibition of the P-gp-, MRP1- or BCRP-mediated efflux of a substrate in cells overexpressing the studied pumps. In detail, we measured the following: (i) the transport inhibition of the profluorescent probe calcein-AM (P-gp and MRP1 substrate) in MDCK-MDR1 and MDCK-MRP1 cells (P-gp- and MRP1-overexpressing cells, respectively); (ii) the transport inhibition of the fluorescent probe Hoechst 33342 (BCRP substrate) in MDCK-BCRP cells (BCRP-overexpressing cells).
Experiments were performed as previously described. MDCK-MDR1 and MDCK-MRP1 cells (30,000 cells per well) were seeded in a 96-well black CulturePlate in 100 µL of medium and allowed to grow overnight in a humidified atmosphere of 5% CO2 at 37 °C. Tested compounds (100 µL) in a final concentration ranging between 0.01 nM and 100 µM, solubilized in culture medium, were added to the monolayers. After 30 min in a humidified atmosphere of 5% CO2 at 37 °C, 100 µL of Calcein-AM in phosphate-buffered saline (PBS) was added to obtain a final concentration of 2.5 µM and the plate was incubated for 30 min. All wells were washed 3 times with 100 µL ice-cold PBS and read with Victor3 (PerkinElmer) after adding 100 µL of cold PBS. Excitation and emission wavelengths of 485 nm and 535 nm, respectively, were used. In these experimental conditions, cell Calcein-AM accumulation in the absence and in the presence of each tested compound was evaluated and compared to the basal level of fluorescence derived from untreated cells. The increase in fluorescence from the baseline level was measured in the treated wells. EC50 values were determined by fitting the rate of fluorescence increase versus log[dose].

The subject of assay [12] is HT29/DOX cells. Nature of the assay: Doxorubicin co-administration assay (MTT). Conditions: compound at 3 µM + doxorubicin 5 µM, 48 h. The assay is classed as cell-based, human. The protocol: (§7) These compounds were then assayed at 1 and 3 µM concentrations in co-administration with doxorubicin at a concentration of 5 µM, which is known to discriminate well between sensitive and resistant cells. […] Moreover, in the A549/DOX cell line, the co-administration of 1, 2, 4–6, 14 and 19, tested at 3 µM, led to the highest enhancement of doxorubicin toxicity reaching a reduction of nearly 55.0% in cell viability.
(§8) K562/DOX cells were incubated for 72 h with different concentrations of doxorubicin in combination with 1 or 3 µM of all compounds. IC50 was the concentration killing 50% of cells and was determined graphically from relative survival curves obtained by GraphPad Prism 5 software (GraphPad, San Diego, CA, USA). HT29, A549, HT29/DOX and A549/DOX cells were incubated for 48 h with 5 µM doxorubicin, alone or in combination with 1 or 3 µM of selected compounds. Cell viability of the cell lines was measured by the MTT assay, using a Synergy HT microplate spectrofluorometer (Bio-Tek Instruments, Winooski, VT, USA). The absorbance of untreated cells was considered 100%; results were expressed as a percentage of viable treated cells versus the control untreated cells.

Assay [13] deals with A549/DOX cells. Nature of the assay: Doxorubicin co-administration assay (MTT). The format is cell-based, human. The conditions noted are these: compound at 3 µM + doxorubicin 5 µM, 48 h. The method, then:
as §7, §8

Several values for one entry are separate records, joined by “and”; a condition that tells them apart may be missing. Identical values can stand only once. Where only a bound is given, the exact number is not on record here.

By Ki is commonly meant the equilibrium dissociation constant of an inhibitor or competing ligand from its target. Higher therefore signals weaker binding. What is called EC50 is the concentration giving half of the maximal effect.

T1 sequence (P00915 whole entry): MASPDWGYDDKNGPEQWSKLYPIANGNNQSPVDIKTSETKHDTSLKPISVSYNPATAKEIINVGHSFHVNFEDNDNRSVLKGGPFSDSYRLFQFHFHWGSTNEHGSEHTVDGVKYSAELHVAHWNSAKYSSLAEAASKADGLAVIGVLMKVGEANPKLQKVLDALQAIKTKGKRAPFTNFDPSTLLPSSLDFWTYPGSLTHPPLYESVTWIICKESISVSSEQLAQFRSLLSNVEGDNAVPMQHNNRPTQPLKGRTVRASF
T2 sequence (O43570 25-354): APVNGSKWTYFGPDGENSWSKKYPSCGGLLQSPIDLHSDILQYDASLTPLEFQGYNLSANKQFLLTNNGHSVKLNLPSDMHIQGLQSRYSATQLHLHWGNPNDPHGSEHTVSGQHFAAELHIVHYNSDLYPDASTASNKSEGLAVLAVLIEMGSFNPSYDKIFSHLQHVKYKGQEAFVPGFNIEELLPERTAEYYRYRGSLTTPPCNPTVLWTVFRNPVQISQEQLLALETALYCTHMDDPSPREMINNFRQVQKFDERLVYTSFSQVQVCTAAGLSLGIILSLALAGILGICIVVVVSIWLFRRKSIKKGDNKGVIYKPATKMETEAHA
Sequence of P-gp (P08183 whole entry): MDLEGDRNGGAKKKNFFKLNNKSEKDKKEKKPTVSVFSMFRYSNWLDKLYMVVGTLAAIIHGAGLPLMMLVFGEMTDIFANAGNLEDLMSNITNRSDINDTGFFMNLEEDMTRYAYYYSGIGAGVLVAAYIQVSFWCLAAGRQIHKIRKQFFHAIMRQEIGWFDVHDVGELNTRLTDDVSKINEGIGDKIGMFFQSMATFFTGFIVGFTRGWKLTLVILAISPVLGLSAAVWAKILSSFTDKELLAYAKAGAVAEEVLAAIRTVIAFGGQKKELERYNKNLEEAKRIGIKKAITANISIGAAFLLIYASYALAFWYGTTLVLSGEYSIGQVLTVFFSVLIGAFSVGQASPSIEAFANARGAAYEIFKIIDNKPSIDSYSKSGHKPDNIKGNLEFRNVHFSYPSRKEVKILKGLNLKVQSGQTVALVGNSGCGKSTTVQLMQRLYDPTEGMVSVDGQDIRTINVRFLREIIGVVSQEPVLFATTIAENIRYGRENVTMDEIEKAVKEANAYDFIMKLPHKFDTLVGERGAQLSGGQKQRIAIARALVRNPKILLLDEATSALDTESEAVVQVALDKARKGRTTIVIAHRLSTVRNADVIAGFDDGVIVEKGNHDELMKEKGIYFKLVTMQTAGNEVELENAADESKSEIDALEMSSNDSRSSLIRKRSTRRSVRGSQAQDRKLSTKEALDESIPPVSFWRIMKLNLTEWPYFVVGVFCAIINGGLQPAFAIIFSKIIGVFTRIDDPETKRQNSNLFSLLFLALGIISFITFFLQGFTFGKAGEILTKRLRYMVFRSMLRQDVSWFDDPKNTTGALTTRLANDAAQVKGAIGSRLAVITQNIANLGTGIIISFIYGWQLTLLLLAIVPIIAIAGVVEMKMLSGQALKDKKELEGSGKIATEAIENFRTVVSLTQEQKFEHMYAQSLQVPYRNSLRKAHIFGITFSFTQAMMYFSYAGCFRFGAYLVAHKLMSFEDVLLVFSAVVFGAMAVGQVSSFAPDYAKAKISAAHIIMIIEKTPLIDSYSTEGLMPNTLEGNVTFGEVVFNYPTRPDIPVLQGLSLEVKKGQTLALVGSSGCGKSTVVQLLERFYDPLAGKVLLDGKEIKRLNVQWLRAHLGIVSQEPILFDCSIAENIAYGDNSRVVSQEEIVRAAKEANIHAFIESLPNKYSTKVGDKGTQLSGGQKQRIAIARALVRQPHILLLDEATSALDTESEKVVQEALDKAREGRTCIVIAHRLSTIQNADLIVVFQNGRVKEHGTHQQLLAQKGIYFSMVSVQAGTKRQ

`COc1cc(/C=C/CN2CCN(CCCCOc3ccc4oc(=O)ccc4c3)CC2)cc(OC)c1OC` [Compound 9, (E)-6-(4-(4-(3-(3,4,5-Trimethoxyphenyl)allyl)piperazin-1-yl)butoxy)-2H-chromen-2-one]: in [1], the “reduction of cellular viability” value is given as 30–50%. Moreover, the “RF (Reversal Fold: IC50 of doxorubicin alone / in presence of modulator)” value stood at 2.5 in [2] (compound at 1 µM) and 1.3 in [2] (compound at 3 µM). Also, the Ki is over 10 µM in assay [3], 0.0073 µM in assay [4], over 10 µM in assay [5] and 0.0221 µM in [6].

On to `COc1ccc(C(CCCN2CCN(CCOc3ccc4ccc(=O)oc4c3)CC2)c2ccc(OC)cc2)cc1` [Compound 25, 7-(2-(4-(4,4-Bis(4-methoxyphenyl)butyl)piperazin-1-yl)ethoxy)-2H-chromen-2-one], for which, in assay [1], the “reduction of cellular viability” value is 30–50%. Besides, the toxicity in assay [7] and in assay [8] was at least 35% in each case. The “RF (Reversal Fold: IC50 of doxorubicin alone / in presence of modulator)” value in [2] (compound at 1 µM) was found to be 5.9. Besides, the Ki in assay [3] is over 10 µM; in assay [4], 0.0847 µM; in assay [5] it was over 10 µM; in [6], 0.113 µM.

Regarding `COc1ccc(C(CCCN2CCN(CCCCOc3ccc4oc(=O)ccc4c3)CC2)c2ccc(OC)cc2)cc1` [Compound 33, 6-(4-(4-(4,4-Bis(4-methoxyphenyl)butyl)piperazin-1-yl)butoxy)-2H-chromen-2-one], the “greater accumulation of doxorubicin” value worked out at 3 fold in [9] and 4 fold in assay [10]. In addition, the “RF (Reversal Fold: IC50 of doxorubicin alone / in presence of modulator)” value in assay [2] (compound at 1 µM) worked out at 9.9. The Ki in assay [3] was over 10 µM; in assay [4], 0.0468 µM; in assay [5], over 10 µM; in [6], 0.0746 µM. For the same molecule, in [11], the EC50 is 3.02 ± 0.09 µM. In addition, the “reduction in cell viability” value in assay [12] worked out at 67.6%; in assay [13], 62.6%.

In the case of `COc1cc(/C=C/CN2CCN(CCOc3ccc4oc(=O)ccc4c3)CC2)cc(OC)c1OC` [Compound 7, (E)-6-(2-(4-(3-(3,4,5-Trimethoxyphenyl)allyl)piperazin-1-yl)ethoxy)-2H-chromen-2-one], in assay [1], the “reduction of cellular viability” value was 30–50%. Also, the “RF (Reversal Fold: IC50 of doxorubicin alone / in presence of modulator)” value in assay [2] (compound at 1 µM) was 1 and 1.1; in assay [2] (compound at 3 µM) it was 1. Besides, the Ki was over 10 µM in assay [3], 0.0295 µM in assay [4], over 10 µM in assay [5] and 0.051 µM in assay [6].

As to `COc1cc(CN2CCN(CCOc3ccc4oc(=O)ccc4c3)CC2)cc(OC)c1OC` [Compound 19, 6-(2-(4-(3,4,5-Trimethoxybenzyl)piperazin-1-yl)ethoxy)-2H-chromen-2-one], the “RF (Reversal Fold: IC50 of doxorubicin alone / in presence of modulator)” value was 1.4 in assay [2] (compound at 1 µM) and 2.2 in assay [2] (compound at 3 µM). For the same molecule, the Ki in assay [3] is over 10 µM; in assay [4] it was 0.0058 µM; in [5] it was over 10 µM; in assay [6], 0.0847 µM. The “reduction in cell viability” value in assay [12] is 65.0%; in assay [13], about 55.0%.
